Source: PubChem BioAssay (NCI)
Several values for one entry are separate records, joined by “and”; a condition that tells them apart may be missing. Equal values may be shown once.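 1) Cells in 96-well plates. 2) Compound, 48 h, 5 concentrations. 3) Linear interpolation between surrounding doses. 4) Unreached endpoint = highest concentration. GI50 = concentration required for 50% inhibition of growth. TGI: total growth inhibition.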

How the values were obtained:
Experiment in all cases: NCI-60 cell line screen, 48 h
SW-620 colon = tested on: SW-620 colon
IGROV1 ovarian = tested on: IGROV1 ovarian
SK-MEL-5 melanoma = tested on: SK-MEL-5 melanoma
SK-MEL-2 melanoma = tested on: SK-MEL-2 melanoma
OVCAR-5 ovarian = tested on: OVCAR-5 ovarian
NCI-H460 lung = tested on: NCI-H460 lung
MOLT-4 leukemia = tested on: MOLT-4 leukemia
OVCAR-3 ovarian = tested on: OVCAR-3 ovarian
SF-268 CNS = tested on: SF-268 CNS
KM12 colon = tested on: KM12 colon
NCI-H226 lung = tested on: NCI-H226 lung
OVCAR-8 ovarian = tested on: OVCAR-8 ovarian
PC-3 prostate = tested on: PC-3 prostate
T-47D breast = tested on: T-47D breast
A498 renal = tested on: A498 renal
HOP-92 NSCLC = tested on: HOP-92 NSCLC
HT29 colon = tested on: HT29 colon
HL-60(TB) leukemia = tested on: HL-60(TB) leukemia
SK-OV-3 ovarian = tested on: SK-OV-3 ovarian
M14 melanoma = tested on: M14 melanoma
NCI-H23 lung = tested on: NCI-H23 lung
RXF 393 renal = tested on: RXF 393 renal
SNB-19 CNS = tested on: SNB-19 CNS
SK-MEL-28 melanoma = tested on: SK-MEL-28 melanoma
OVCAR-4 ovarian = tested on: OVCAR-4 ovarian
LOX IMVI melanoma = tested on: LOX IMVI melanoma
HCT-15 colon = tested on: HCT-15 colon
UACC-257 melanoma = tested on: UACC-257 melanoma
MCF7 breast = tested on: MCF7 breast

For `O=C(NNc1nc2cc(F)c(F)cc2n2cccc12)c1cccnn1`, the GI50 (SW-620 colon) was 231 nM and 354 nM, the TGI (SW-620 colon) was 30000 nM and 60300 nM and the GI50 (IGROV1 ovarian) was 227 nM and 273 nM. For the same compound, the TGI (IGROV1 ovarian) was 5020 nM and 4690 nM, the GI50 (SK-MEL-5 melanoma) was 491 nM and 271 nM and the TGI (SK-MEL-5 melanoma) was 3350 nM and 2000 nM. The GI50 (SK-MEL-2 melanoma) was 963 nM and 1490 nM, the TGI (SK-MEL-2 melanoma) was 30000 nM and 15500 nM and the GI50 (OVCAR-5 ovarian) was 693 nM and 2310 nM. The TGI (OVCAR-5 ovarian) was 30000 nM and 32300 nM, the GI50 (NCI-H460 lung) was 134 nM and 81 nM and the TGI (NCI-H460 lung) was 3650 nM and 1960 nM. For the same compound, the GI50 (MOLT-4 leukemia) was 178 nM and 136 nM, the GI50 (OVCAR-3 ovarian) was 227 nM and 243 nM and the TGI (OVCAR-3 ovarian) was 3710 nM and 13200 nM. The GI50 (SF-268 CNS) was 364 nM and 274 nM, the TGI (SF-268 CNS) was 30000 nM and > 100000 nM and the GI50 (KM12 colon) was 378 nM and 336 nM. For the same compound, the TGI (KM12 colon) was 30000 nM and 33300 nM, the GI50 (NCI-H226 lung) was 387 nM and 643 nM and the TGI (NCI-H226 lung) was 14700 nM and 12100 nM. For the same compound, the GI50 (OVCAR-8 ovarian) was 322 nM and 269 nM, the TGI (OVCAR-8 ovarian) was 30000 nM and > 100000 nM and the GI50 (PC-3 prostate) was 201 nM and 419 nM. For the same compound, the GI50 (T-47D breast) was 838 nM and 293 nM, the TGI (T-47D breast) was 24500 nM and 9750 nM and the GI50 (A498 renal) was 614 nM and 382 nM. The TGI (A498 renal) was 3260 nM and 2450 nM, the GI50 (HOP-92 NSCLC) was 398 nM and the TGI (HOP-92 NSCLC) was 8820 nM. The GI50 (HT29 colon) was 644 nM and 542 nM, the TGI (HT29 colon) was 30000 nM and 29200 nM and the GI50 (HL-60(TB) leukemia) was 570 nM and 231 nM. For the same compound, the GI50 (SK-OV-3 ovarian) was 300 nM and 326 nM, the TGI (SK-OV-3 ovarian) was 11400 nM and 17900 nM and the GI50 (M14 melanoma) was 309 nM and 197 nM. For the same compound, the TGI (M14 melanoma) was 30000 nM and 11500 nM, the GI50 (NCI-H23 lung) was 654 nM and the TGI (NCI-H23 lung) was 50800 nM. The GI50 (RXF 393 renal) was 700 nM and 245 nM, the TGI (RXF 393 renal) was 4130 nM and 13200 nM and the GI50 (SNB-19 CNS) was 394 nM and 434 nM. For the same compound, the TGI (SNB-19 CNS) was 30000 nM and > 100000 nM, the GI50 (SK-MEL-28 melanoma) was 504 nM and 515 nM and the TGI (SK-MEL-28 melanoma) was 30000 nM and 22400 nM. The GI50 (OVCAR-4 ovarian) was 209 nM and 201 nM, the TGI (OVCAR-4 ovarian) was 30000 nM and > 100000 nM and the GI50 (LOX IMVI melanoma) was 247 nM and 156 nM. The TGI (LOX IMVI melanoma) was 1090 nM and 5270 nM, the GI50 (HCT-15 colon) was 123 nM and 46.8 nM and the TGI (HCT-15 colon) was 30000 nM and 38300 nM. For the same compound, the GI50 (UACC-257 melanoma) was 802 nM and 364 nM, the TGI (UACC-257 melanoma) was 2890 nM and 11000 nM and the GI50 (MCF7 breast) was 408 nM and 304 nM. The TGI (MCF7 breast) was 4310 nM and 2830 nM.
